Laboratory results as given in publication PMC3293801, “Differential Contribution of the Repeats to Heparin Binding of HBHA, a Major Adhesin of Mycobacterium tuberculosis” (PLoS ONE, 2012).

Molecular target: T1, MalE-Ct (Mycobacterium tuberculosis, UniProt P9WIP9)
T1 construct: gene hbhA; pMAL+3R1+2R2, E. coli B834; 15N-labelled; MBP kept
Assay type: binding
Details: 20 mM phosphate pH 6.8, 0.15 M NaCl, 20°C, 900 MHz, 60 µM protein; apparent, single site

T1 sequence (P9WIP9 161-199): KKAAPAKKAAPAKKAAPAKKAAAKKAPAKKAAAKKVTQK

Question: Which Kd does the source give for dp14 heparin-derived oligosaccharide here?
Answer: 58.8 ± 14 µM

Question: How did the Kd turn out when dp10 heparin-derived oligosaccharide was run?
Answer: 79.4 ± 23 µM
